Measured values: patent US6815426B2, “Angiogenesis-inhibitory tripeptides, compositions and their methods of use” (E. I. du Pont de Nemours and Company, priority 2001, dated 2004)
“Also recorded” adds a separate entry of the source. Where a SMILES comes first, the peptide text is derived from it. Where no end group is shown, it is not given here. [ ]: non-standard residue; d: D form. ξ: configuration not given here. ξHyp = O=C(O)C1CC(O)CN1

Key:
[1] = tested on: FGF2-induced angiogenesis in the chorioallantoic membrane (CAM); experiment: FGF2-induced neovascularization on the chick chorioallantoic membrane (CAM), branch point count; format: in vivo; details: for % Inhibition of branch point formation: 16 μg, FGF2-stimulated CAM; for Average # of Branch Points: FGF2 filter disk on CAM, peptide 16 μg topically, 48 h
Method: In vivo neovascularization was examined by the method previously described by Auerbach et al. (J. Dev. Biol. 41:391-394 (1974)). Ten-day old embryos were purchased from Spafas, Inc. (Preston, Conn.) and were incubated at 37° C. with 55% relative humidity. In the dark with the help of a candling lamp a small hole was punctured in the shell concealing the air sac with a hypodermic needle. A second hole was punctured in the shell on the broadside of the egg directly over an […] portion of the embryonic membrane, as observed during candling. A false air sac was created beneath the second hole by the application of negative pressure to the first hole, which caused the chorioallantoic membrane (CAM) to separate from the shell. A window, approximately 1.0 cm^2, was cut in the shell over the dropped CAM with the use of a small crafts grinding wheel (Dremel, Division of Emerson Electric Company Racine, WI) which allowed direct access to the underlying CAM. Filter disks of #1 filter paper (Whatman International, United Kingdom) were soaked in 3 mg/mL cortisone acetate (Sigma, St. Louis, Mo.) in a solution of 95% ethanol and water and subsequently air dried under sterile conditions. FGF2 (Life Technologies, Gaithersburg, Md.) was used to grow vessels on the CAMs of 10-d old chick embryos. Sterile filter disks adsorbed with FGF2 dissolved in PBS at 1 μg/mL were placed on growing CAMs. At 24 h, test compounds or control vehicle was added directly to CAMs topically.
CAM tissue directly beneath FGF2-saturated filter disk was resected from embryos treated 48 h prior with compound or control. Tissues were washed three times with PBS. Sections were placed in a 35-mm petri dish (Nalge Nunc, Rochester, N.Y.) and examined under a SV6 stereomicroscope (Karl Zeiss, Thornwood, N.Y.) at 50× magnification. Digital images of CAM sections adjacent to filters were collected using a 3-CCD color video camera system (Toshiba America, New York, N.Y.) and analyzed with the Image-Pro Plus software (Media Cybernetics, Silver Spring, Md.) and can be seen in FIG. 2. Table 3 contains the number of vessel branch points contained in a circular region equal to the area of a filter disk counted for each section. Percent inhibition data is expressed as the quotient of the experimental value minus the negative control value divided by the difference between the positive control value and the negative control value.

[2] = tested on: Human umbilical vein endothelial cells (HUVEC); experiment: FGF2-stimulated endothelial cell tube formation on Matrigel matrix; format: cell-based; details: for Inhibition of FGF2-stimulated EC tube formation, in words: in vitro, qualitative ranking; for Cell Tube Formation (area) / Cell Tube Formation (length): HUVEC on Matrigel, FGF2 100 ng/mL, peptide 0.015 μmol added with FGF2, overnight; for Cell Tube Formation (length): length/area; for % inhibition cell tube formation (area) / % inhibition cell tube formation (length): peptide 0.015 μmol, FGF2-stimulated HUVEC
Method: Differentiation by endothelial cells was examined using a method developed by Grant et al. (In Vitro Cell Dev. Biol. 27A:327-336 (1991)). Matrigel® matrix, phenol-red free (commercially available from Becton Dickinson, Bedford, Mass.) was thawed overnight at 4° C. Using cold pipette tips, 3.0 mg/well of Matrigel® matrix was placed in a cold twenty-four-multiwell plate (Falcon). Matrigel® matrix was allowed to polymerize during incubation at 37° C. for 30 min. Human umbilical vein endothelial cells (HUVEC) were maintained at 37° C. with 5% CO2 and 95% humidity in endothelial cell growth medium with 2% fetal bovine serum (EGM). Tube assay was performed in endothelial cell basal medium (EBM) supplemented with 0.5% bovine serum albumin (BSA) and 1:100 diluted Insulin-Transferrin-Selenium-G supplement (I-T-Se, 100×). HUVEC were trypsinized and centrifuged and subsequently, washed twice in phosphate buffered saline (PBS). After counting, cell density was adjusted to 35,000 cells/mL. At final concentration of 35,000 cells/mL/well were treated with recombinant human fibroblast growth factor basic (FGF2) at 100 ng/mL and peptides (see below) dissolved in EBM medium at to a concentration of 0.015 μmol. Treated cells were incubated overnight at 37° C. with 5% CO2 and 95% humidity to allow cell attachment. Subsequently, the medium was aspirated and cells were fixed and stained using a modified HEMA-3 stain kit. Digital images of microtiter well sections were collected using a DKC5000 3-CCD color video camera system (Toshiba America, New York, N.Y.) and analyzed with the Image-Pro Plus software (Media Cybernetics, Silver Spring, Md.). The area and major axis length of stained cells having a tubular morphology on the Matrigel® matrix surface (Becton Dickinson, Bedford, Pa.) counted from 5 images/well.

[3] = tested on: TSU-Pr (human prostrate) tumor; details: 45 μg, after 7 d
Method: Ten million tumor cells were placed on the surface of each CAM (7-d old embryo) and were cultured for one week. The resulting tumors were excised and cut into 50 mg fragments. […] Each treatment group incorporated at least ten tumors per experiment. Representative tumors were photographed at 10× magnification. Tumors were then excised from the egg and tumor weights were determined for each tumor. Data is presented as mean tumor weight per treatment group (±standard error of the mean). Statistical analysis was performed using Student's t-test.

[4] = tested on: human melanoma cells; details: cited from earlier work
[5] = tested on: human melanoma cells; details: cited from earlier work; remark: listed apart in the source

| Compound | % Inhibition of Branch Points in FGF2-Induced CAM Assay ([1]; 1 μg/CAM) | % Inhibition of Branch Points in FGF2-Induced CAM Assay ([1]; 5 μg/CAM) | % Inhibition of Branch Points in FGF2-Induced CAM Assay ([1]; 15 μg/CAM) | Inhibition of FGF2-stimulated EC tube formation, in words [2] | % inhibition cell tube formation (area) [2] | % inhibition cell tube formation (length) [2] | also measured |
| --- | --- | --- | --- | --- | --- | --- | --- |
| CC(=O)N[C@@H](CO)C(=O)N[C@@H](CC(N)=O)C(=O)N1CC(O)CC1C(N)=O (stereo partly drawn) [SN-t4Hyp] (Ac-Ser-Asn-[ξHyp]-NH2) | 39% +/− 11 | 60% +/− 7 | 71% +/− 8 | most potent |  |  |  |
| CC(=O)N[C@@H](CO)C(=O)N[C@@H](CC(N)=O)C(=O)N[C@H](CO)C(N)=O [SNs] (Ac-Ser-Asn-[dS]-NH2) | 62% +/− 7 | 78% +/− 6 | 69% +/− 8 | most potent |  |  |  |
| CC(=O)NC(CO)C(=O)NC(CC(N)=O)C(=O)NC(CO)C(N)=O (stereo not drawn) [acetyl-SNS-carboxamide, acetyl-Ser-Asn-Ser-carboxamide] (Ac-Ser-Asn-Ser-NH2; configuration not given here) |  |  |  | very potent inhibitor; also recorded: more potent inhibitor | 97% +/− 8 | 84% +/− 9 | % ave inhibition of TSU-Pr tumor growth (weight) ([3]; injected into tumors): 111%; Tumors showing significant weight shrinkage ([3]; ten tumors injected): Six tumors out of the ten; % Inhibition of branch point formation [1]: 100.23%; % Inhibition of branch point formation ([1]; listed as acetyl-Ser-Asn-Ser-carboxamide): 100%; Average # of Branch Points [1]: 91.60; Cell Tube Formation (area) [2]: 1.1011 +/− 0.12 10^4 square microns; Cell Tube Formation (length) [2]: 47.5267 +/− 4.31 mm/mm^2 |
| CNYYSNSYSFWLASLNPER [SEQ ID NO:1, peptide of residues 185-203 of the NC1 domain of the α3-chain of collagen type IV] |  |  |  |  |  |  | Promotion of adhesion of human melanoma cells over controls [4]: 50-60%; Inhibition of proliferation of human melanoma cells [5]: 40% |
| FGF2: recombinant human fibroblast growth factor basic, angiogenic stimulus [reference compound] |  |  |  |  |  |  | Average # of Branch Points [1]: 263.88; Cell Tube Formation (area) [2]: 2.2501 +/− 0.28 10^4 square microns; Cell Tube Formation (length) [2]: 79.8272 +/− 8.66 mm/mm^2 |
| Ser-Gln-Ser [SQS] | 101% +/− 7 | 121% +/− 6 | 82% +/− 7 | most potent |  |  |  |
| acetyl-Cys-Asn-Tyr-Tyr-Ser-Asn-Ser-Tyr-Ser-Phe-Trp-Leu (Ac-CNYYSNSYSFWL) [SEQ ID NO: 4, As defined in b173] |  |  |  |  | 71% +/− 6 | 54% +/− 3 |  |
| acetyl-Ser-Asn-Ser-Tyr-Ser-Phe-Trp-Leu (Ac-SNSYSFWL) [SEQ ID NO: 3, As defined in b173] |  |  |  |  | 75% +/− 7 | 65% +/− 3 |  |
